In patent EP4467141A1, “PYRAZOLO-QUINOLINES AS SELECTIVE INHIBITORS OF GENOTOXIC STRESS-INDUCED IKK/NF- KB PATHWAYS FOR CANCER THERAPY” (Max-Delbrück-Centrum für Molekulare Medizin in der …, priority 2023, dated 2024) one finds inhibition data, which are given here for two molecules.

What all share (test): Kinase panel study
Assay type in all cases: biochemical
Conditions in all cases: read-out: Percentage of inhibition; for inhibition at 1 µM: 1000nM; for inhibition at 10 µM: 10000nM

In one assay the target is T1, CDK6/cyclin D1 (Homo sapiens, UniProt Q00534).
T1 construct: purchased Thermo Fisher Scientific
A digest of the protocol:
(§1)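 Kinase inhibition was determined by a contract provider in cell-free ZLyte or Adapta assays. Results are expressed as % inhibition at 10 or 1 µM.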

The next assay addresses T2, EGFR (ErbB1) L858R (Homo sapiens, UniProt P00533, L858R).
T2 construct: purchased Thermo Fisher Scientific
A digest of the protocol:
as §1

For another assay, the target named is T3, KIT T670I (Homo sapiens, UniProt P10721, T670I).
T3 construct: purchased Thermo Fisher Scientific
A digest of the protocol: as §1

The next assay has as its target T4, MAP3K19 (YSK4) (Homo sapiens, UniProt Q56UN5).
T4 construct: purchased Thermo Fisher Scientific
T4 sequence (Q56UN5 1-1328): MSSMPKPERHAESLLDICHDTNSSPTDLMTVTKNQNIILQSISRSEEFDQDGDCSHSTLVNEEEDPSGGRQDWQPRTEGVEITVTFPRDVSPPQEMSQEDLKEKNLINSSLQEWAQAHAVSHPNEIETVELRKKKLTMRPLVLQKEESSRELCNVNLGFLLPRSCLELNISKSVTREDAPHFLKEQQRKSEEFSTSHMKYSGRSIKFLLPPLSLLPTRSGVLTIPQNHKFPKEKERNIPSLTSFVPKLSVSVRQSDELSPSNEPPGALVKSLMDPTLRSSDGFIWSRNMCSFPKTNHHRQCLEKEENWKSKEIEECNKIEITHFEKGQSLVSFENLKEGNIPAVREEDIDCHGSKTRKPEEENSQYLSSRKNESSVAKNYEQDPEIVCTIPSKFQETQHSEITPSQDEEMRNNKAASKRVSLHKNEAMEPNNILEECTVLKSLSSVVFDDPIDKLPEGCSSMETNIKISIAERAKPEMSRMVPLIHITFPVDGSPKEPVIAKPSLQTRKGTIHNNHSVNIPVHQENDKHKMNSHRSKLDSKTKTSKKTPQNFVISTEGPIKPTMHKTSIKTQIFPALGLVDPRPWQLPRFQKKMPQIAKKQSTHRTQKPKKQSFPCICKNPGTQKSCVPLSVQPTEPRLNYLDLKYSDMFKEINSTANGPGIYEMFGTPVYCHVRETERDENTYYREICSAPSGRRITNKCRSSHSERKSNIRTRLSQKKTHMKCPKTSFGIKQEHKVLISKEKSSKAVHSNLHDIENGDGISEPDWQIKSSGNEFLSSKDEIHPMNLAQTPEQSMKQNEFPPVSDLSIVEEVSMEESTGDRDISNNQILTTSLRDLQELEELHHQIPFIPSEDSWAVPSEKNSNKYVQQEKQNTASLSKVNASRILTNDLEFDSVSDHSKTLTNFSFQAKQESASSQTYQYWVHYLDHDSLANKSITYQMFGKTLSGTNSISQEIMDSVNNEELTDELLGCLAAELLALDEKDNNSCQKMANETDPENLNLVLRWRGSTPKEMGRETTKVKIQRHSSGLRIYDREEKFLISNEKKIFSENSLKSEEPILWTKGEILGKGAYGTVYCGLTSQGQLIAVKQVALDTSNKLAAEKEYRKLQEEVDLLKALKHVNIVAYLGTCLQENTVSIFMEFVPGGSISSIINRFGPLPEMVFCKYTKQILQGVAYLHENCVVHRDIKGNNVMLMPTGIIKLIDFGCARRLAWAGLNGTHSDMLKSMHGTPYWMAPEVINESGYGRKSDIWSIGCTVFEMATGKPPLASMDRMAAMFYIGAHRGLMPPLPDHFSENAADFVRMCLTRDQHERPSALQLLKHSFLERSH
A digest of the protocol:
as §1

A further assay concerns the target T5, RPS6KA4 (MSK2) (Homo sapiens, UniProt O75676).
T5 construct: purchased Thermo Fisher Scientific
The method, boiled down: as §1

The target in another assay is T6, SPHK1 (Homo sapiens, UniProt Q9NYA1).
T6 construct: purchased Thermo Fisher Scientific
A digest of the protocol: as §1

The next assay addresses T7, STK4 (MST1) (Homo sapiens, UniProt Q13043).
T7 construct: purchased Thermo Fisher Scientific
T7 sequence (Q13043 1-487): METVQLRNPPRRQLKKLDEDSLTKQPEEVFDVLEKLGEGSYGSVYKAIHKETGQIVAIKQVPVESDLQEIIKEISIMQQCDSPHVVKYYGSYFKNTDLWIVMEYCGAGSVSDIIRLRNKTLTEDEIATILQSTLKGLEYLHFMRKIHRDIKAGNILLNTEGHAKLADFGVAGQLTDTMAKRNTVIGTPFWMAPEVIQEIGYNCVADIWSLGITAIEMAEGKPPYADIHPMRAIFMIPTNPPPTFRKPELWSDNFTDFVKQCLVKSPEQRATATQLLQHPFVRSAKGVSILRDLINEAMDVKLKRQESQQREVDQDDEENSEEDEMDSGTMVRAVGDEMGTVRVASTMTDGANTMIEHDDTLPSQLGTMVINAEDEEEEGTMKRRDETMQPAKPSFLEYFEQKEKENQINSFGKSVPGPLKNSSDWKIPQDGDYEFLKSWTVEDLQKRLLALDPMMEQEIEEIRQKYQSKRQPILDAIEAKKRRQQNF
The method, boiled down:
as §1

T1 sequence (Q00534 whole entry): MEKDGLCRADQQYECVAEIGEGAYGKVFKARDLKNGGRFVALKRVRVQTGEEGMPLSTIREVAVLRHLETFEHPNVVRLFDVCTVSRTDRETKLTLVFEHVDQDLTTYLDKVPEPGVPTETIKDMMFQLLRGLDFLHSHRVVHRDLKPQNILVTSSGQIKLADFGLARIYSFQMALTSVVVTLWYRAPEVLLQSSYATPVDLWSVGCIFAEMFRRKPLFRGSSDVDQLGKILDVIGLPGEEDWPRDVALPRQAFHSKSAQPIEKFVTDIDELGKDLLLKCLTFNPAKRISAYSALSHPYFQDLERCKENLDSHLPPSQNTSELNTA
T1 sequence (P24385 whole entry partner): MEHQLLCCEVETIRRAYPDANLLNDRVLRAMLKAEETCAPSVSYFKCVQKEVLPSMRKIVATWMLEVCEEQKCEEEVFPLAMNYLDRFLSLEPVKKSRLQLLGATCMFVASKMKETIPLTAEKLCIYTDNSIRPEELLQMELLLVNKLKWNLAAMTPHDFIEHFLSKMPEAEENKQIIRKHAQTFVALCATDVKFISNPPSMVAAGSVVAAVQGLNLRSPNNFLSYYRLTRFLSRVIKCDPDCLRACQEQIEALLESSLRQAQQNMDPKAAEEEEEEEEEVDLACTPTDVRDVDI
T2 sequence (P00533 25-1210 L858R): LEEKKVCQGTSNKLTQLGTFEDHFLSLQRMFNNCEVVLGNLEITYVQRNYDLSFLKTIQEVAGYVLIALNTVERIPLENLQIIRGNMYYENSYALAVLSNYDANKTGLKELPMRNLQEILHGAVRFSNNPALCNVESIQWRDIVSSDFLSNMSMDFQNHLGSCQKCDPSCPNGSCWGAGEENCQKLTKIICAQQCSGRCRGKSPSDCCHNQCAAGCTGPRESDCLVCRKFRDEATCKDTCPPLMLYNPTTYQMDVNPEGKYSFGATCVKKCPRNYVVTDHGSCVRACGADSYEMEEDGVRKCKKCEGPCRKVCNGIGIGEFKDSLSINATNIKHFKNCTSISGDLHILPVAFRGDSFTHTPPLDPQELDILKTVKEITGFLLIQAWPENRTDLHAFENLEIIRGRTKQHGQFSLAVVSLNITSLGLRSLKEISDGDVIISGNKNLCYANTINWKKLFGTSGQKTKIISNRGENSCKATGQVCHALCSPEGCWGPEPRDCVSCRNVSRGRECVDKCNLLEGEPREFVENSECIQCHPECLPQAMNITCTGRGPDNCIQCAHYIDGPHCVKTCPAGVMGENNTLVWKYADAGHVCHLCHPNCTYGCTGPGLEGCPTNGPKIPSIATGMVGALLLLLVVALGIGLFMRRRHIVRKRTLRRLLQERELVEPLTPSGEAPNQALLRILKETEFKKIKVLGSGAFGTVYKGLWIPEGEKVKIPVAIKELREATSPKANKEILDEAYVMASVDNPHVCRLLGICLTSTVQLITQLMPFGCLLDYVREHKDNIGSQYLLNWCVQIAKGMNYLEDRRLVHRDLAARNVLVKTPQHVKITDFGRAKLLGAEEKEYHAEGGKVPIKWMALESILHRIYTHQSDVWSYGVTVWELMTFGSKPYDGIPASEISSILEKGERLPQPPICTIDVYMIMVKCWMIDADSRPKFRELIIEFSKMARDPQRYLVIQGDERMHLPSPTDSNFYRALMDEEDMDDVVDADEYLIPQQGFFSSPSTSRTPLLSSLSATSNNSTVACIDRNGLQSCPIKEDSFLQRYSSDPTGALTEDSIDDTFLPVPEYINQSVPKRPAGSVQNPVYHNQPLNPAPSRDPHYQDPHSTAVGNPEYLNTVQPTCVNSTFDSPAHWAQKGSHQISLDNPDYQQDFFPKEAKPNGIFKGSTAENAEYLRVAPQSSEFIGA
T5 sequence (O75676 whole entry): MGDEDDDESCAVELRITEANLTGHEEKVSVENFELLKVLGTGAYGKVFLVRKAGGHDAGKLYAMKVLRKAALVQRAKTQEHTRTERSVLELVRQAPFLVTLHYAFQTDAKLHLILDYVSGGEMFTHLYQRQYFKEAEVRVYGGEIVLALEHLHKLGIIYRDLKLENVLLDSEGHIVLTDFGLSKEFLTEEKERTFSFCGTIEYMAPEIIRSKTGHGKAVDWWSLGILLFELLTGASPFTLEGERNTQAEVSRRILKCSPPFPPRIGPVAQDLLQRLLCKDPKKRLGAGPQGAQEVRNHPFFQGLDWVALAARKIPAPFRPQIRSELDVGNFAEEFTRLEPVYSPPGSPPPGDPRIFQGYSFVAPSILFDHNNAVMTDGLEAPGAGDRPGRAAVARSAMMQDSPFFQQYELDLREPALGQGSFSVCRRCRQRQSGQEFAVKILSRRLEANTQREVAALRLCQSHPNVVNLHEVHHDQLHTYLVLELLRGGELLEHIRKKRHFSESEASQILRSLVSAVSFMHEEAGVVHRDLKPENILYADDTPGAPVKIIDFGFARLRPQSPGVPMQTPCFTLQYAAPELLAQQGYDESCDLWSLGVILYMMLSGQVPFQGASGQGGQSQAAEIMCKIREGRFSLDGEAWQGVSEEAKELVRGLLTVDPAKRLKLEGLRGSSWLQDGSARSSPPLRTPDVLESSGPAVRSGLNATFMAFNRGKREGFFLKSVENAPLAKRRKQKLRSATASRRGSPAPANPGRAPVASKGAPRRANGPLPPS
T6 sequence (Q9NYA1 whole entry): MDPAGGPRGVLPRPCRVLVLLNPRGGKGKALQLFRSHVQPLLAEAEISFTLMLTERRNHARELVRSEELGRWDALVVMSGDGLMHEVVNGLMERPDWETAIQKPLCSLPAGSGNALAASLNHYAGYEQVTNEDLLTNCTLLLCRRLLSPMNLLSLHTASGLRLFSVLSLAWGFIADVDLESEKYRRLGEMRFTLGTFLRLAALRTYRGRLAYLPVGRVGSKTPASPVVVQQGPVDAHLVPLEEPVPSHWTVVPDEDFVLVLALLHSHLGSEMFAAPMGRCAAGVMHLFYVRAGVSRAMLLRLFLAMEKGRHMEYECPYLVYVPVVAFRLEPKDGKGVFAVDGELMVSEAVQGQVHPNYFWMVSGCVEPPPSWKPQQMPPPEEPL
T3 sequence (P10721 26-976 T670I): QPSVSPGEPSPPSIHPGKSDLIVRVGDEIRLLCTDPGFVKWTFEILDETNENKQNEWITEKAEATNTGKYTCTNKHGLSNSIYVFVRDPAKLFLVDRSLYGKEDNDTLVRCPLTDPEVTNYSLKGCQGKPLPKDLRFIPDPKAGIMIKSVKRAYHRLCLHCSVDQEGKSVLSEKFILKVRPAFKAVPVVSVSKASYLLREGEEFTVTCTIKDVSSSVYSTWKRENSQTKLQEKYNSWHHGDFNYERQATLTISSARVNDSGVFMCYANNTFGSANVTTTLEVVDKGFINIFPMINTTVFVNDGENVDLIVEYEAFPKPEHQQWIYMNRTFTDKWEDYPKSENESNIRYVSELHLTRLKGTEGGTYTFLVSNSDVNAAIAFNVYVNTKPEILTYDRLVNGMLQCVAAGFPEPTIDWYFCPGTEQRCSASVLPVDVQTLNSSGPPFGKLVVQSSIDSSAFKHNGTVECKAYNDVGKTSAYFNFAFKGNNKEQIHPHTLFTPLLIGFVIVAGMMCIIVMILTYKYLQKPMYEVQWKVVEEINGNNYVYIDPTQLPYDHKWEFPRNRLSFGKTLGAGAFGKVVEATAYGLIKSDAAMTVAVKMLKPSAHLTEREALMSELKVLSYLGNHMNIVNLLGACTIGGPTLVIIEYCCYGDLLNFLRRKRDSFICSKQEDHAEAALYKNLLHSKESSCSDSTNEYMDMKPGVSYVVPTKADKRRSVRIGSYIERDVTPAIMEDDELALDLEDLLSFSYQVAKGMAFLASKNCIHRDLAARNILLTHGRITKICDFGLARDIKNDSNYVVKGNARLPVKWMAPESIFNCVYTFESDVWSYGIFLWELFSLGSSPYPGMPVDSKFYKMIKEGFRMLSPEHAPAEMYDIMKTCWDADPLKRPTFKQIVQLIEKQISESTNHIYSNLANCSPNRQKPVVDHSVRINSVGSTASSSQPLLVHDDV

The term inhibition denotes the relative decrease from the control value, in per cent. For `COc1ccc2c(c1OC)c(=O)n1c3ccc(O)cc3c3ccnc2c31` [MW01, 5-Hydroxy-10,11-dimethoxy-9H-benzo[c]indolo[3,2,1-ij][1,5]naphthyridin-9-one], the inhibition at 1 µM was 1% on CDK6/cyclin D1; 3% on EGFR (ErbB1) L858R; 1% at KIT T670I; 4% at MAP3K19 (YSK4); 12% at RPS6KA4 (MSK2); -7% on SPHK1. The inhibition at 1 µM at STK4 (MST1) worked out at 4%. In addition, the inhibition at 10 µM was -8% at CDK6/cyclin D1; 5% on EGFR (ErbB1) L858R; 13% on KIT T670I; 17% at MAP3K19 (YSK4); 24% on RPS6KA4 (MSK2); -3% at SPHK1. Besides, the inhibition at 10 µM at STK4 (MST1) turned out to be 11%.
`COc1ccc2cc3c(N)nn(C(=O)c4cccc(N(C)C)c4)c3nc2c1` [MW05, (3-Amino-7-methoxypyrazolo[3,4-b]quinolin-1-yl)-[3-(dimethylamino)phenyl]methanone]: the inhibition at 1 µM at CDK6/cyclin D1 was 2%; on EGFR (ErbB1) L858R, 6%; on KIT T670I, -1%; on MAP3K19 (YSK4), -3%; at RPS6KA4 (MSK2), -3%; at SPHK1 it was -2%. Besides, the inhibition at 1 µM at STK4 (MST1) came to 4%. Further, the inhibition at 10 µM on CDK6/cyclin D1 was 0%; at EGFR (ErbB1) L858R, 16%; at KIT T670I it was -13%; on MAP3K19 (YSK4) it was -5%; at RPS6KA4 (MSK2) it was 4%; on SPHK1, 1%. Besides, the inhibition at 10 µM on STK4 (MST1) stood at 3%.
